From patent US20210137990A1, “METHODS FOR EXP ANDING ADIPOSE-DERIVED STEM CELLS” (CELLECT BIOTHERAPEUTICS LTD., priority 2018, published 2021)
Entries after “also recorded” stand apart in the source; their conditions may differ. Residues, ends and D or L forms follow the SMILES beside them. *: point of attachment. Cbz = O=C(OCc1ccccc1)*; CH2F = FC*

Tests used:
ASCs [1] = experiment: ASC proliferation with Fas-L and inhibitors for 4 days, cell counts; format: cell-based, human
From the text: (§1) The dual effect of Fas-L on the apoptosis and proliferation of ASCs, can be mediated solely by canonical Fas-L signaling or through two distinct pathways. To distinguish between these possibilities, ASCs were either left untreated, treated with Fas-L only or treated simultaneously with Fas-L and with the pan-caspase inhibitor […], for 4 days. Importantly, to better evaluate the apoptotic cue of Fas-L, a different Fas-L derivative (mega-Fas-L), which induces high rates of apoptosis in passage 3 ASCs, was used in the current experiments. Sub-G1 proportions and cell numbers were determined by PI cell-cycle flow cytometry analysis and standard cell counts respectively. The experiment was repeated 3 times using cells from 3 independent patients.
Accordingly, cultured Passage 2-4 ASCs were treated with a combination of mega Fas-L, Z-VAD-fmk, LY294002 (PI3K inhibitor), AZD6244 (ERK-1/2 inhibitor) and SP600125 (JNK inhibitor) for 4 days.
After 4 days, cells were removed from plates by trypsin and cells were counted using a standard cell counter. The experiment was repeated 3 times using cells from 3 independent patients.
To test the effects of inhibitors on proliferation of mature ASCs (P2 and P3 ASCs), cells were seeded into 24-well plates (10.000 cells/well) and allowed to attach and grow for 24 h. Then, medium was exchanged for fresh normal growth medium or growth medium supplemented with Fas-L or with Fas-L and one of the inhibitors. Cells were then cultured for 4 days.
At the end of the incubation period, adherent cells were trypsinized, collected and counted with a TC10 Automated Cell Counter (Bio-rad).

ASCs [2] = experiment: ASC apoptosis with Fas-L and inhibitors for 4 days, sub-G1 by PI cell-cycle flow cytometry; format: cell-based, human; settings: Z-VAD-fmk added to mega-Fas-L
From the text: as §1
Cells were harvested and fixed with 70% ethanol/PBS, treated with RNaseA 0.4 mg/ml (Sigma) and stained with propidium iodide (PI) 0.1 mg/ml (Sigma).
All labeled cells were analyzed using a FACS Canto II flow cytometer (Becton Dickinson, San Jose, Calif., USA). At least 10.000 events were recorded. Data analysis was performed using the FlowJo software (Tree Star, Ashland, Oreg., USA).

Row | SMILES | ASC counts compared to cells treated with Fas-L only (ASCs [1]; P2-4 ASCs, mega Fas-L plus inhibitor, 4 days) | cell quantities (ASCs [1]; P2-4 ASCs, mega Fas-L, Z-VAD-fmk plus inhibitor, 4 days) | Fas-L-dependent proliferation of ASCs (ASCs [1]; inhibitor added to Fas-L) | cell yield (ASCs [1]; Fas-L and Z-VAD-fmk together, 4 days, vs untreated) | Fas-L-induced ASC proliferation (ASCs [1]; Z-VAD-fmk added to mega-Fas-L, 4 days) | cell expansion (ASCs [1]; Z-VAD-fmk only, 4 days) | Fas-L-induced apoptosis of ASCs (sub-G1) (ASCs [2])
1 | Cn1cnc2c(F)c(Nc3ccc(Br)cc3Cl)c(C(=O)NOCCO)cc21 [AZD6244] | reduced ASC counts | comparable to untreated control | could be inhibited | – | – | – | –
2 | COC(=O)C[C@H](NC(=O)[C@H](C)NC(=O)[C@@H](NC(=O)OCc1ccccc1)C(C)C)C(=O)CF [Z-VAD-fmk] (Cbz-Val-Ala-Asp(OMe)-CH2F) | – | – | – | doubled cell yield | not affected; also recorded: without impacting; also recorded: minor to negligible effect | No such increased expansion | considerably attenuated; also recorded: near-complete inhibition
